From patent US6812214B2, “Use of harpagid-related compounds for prevention and treatment of osteoporosis, arthritis and ruptured disc and pharmaceutical composition containing the same” (priority 2000, dated 2004)
“Also recorded” adds a separate entry of the source.

Assays:
synovial cells = test: Induction of apoptosis of synovial cell lines; assay type: cell-based, human; settings: 10 μg/ml, 24 hours
Method: The synovial cells separated from outpatients suffering from rheumatoid arthritis were distributed on 5% DMEM medium supplemented with penicillin/streptomycin in a 6-well culture dish at the concentration of 10^4 cells and then incubated for 24 hours at 37° C. to observe the surviving cells. In order to determine the presence or absence of cells and the proliferating state of cells, apoptosis-induced cells were examined by taking their photographs under a phase-contrast microscope of 200 magnifications.
(§1) In order to determine whether the compound identified as the effective component of the pharmaceutical composition separated according to the present invention can induce the apoptosis of Raw 264.7 cell lines as macrophage involved in inflammatory reaction and synovial cells, the cells were distributed on 5% DMEM medium supplemented with penicillin/streptomycin in a 6-well culture dish at the concentration of 10^4 cells and then incubated at 37° C. for 24 hours while adding the extractions as above at the concentration of 10 μg/ml to observe the reaction. Apoptosis was examined by taking a photograph of apoptosis-induced cells under a polarizing microscope of 200 magnifications.

[1] = test system: edema-induced albino rats; test: Inhibitory effect on edema of arthritis (Zymosan-A / Freund's adjuvant induced paw edema); assay type: in vivo; settings: for inhibitory effect on edema: in words, after 70 days
Method: In order to observe the inhibitory effect on edema of the pharmaceutical composition of the present invention, 6 albino rats weighing 200 g were used per test group to induce edema by injecting the mixture of 0.5 ml of Zymosan-A (20 mg/ml/kg) and 0.5 ml of Freund's adjuvant into ST36 position of left paw and then observed for the progress of edema for 70 days by taking a photograph before and after induction of edema. The water extract and organic solvent fractions of the pharmaceutical composition of the present invention were respectively constituted in the concentration of 0.6 mg/ml and then orally administered for 14 days to albino rats in an amount of 1 ml per kg of body weight once a day to determine the inhibitory effect on edema. As the test sample, the organic solvent fractions of the pharmaceutical composition including ABE, ABB, ABW, CBE, CBB, CBW, LNE, LNB, LNW, CRB, CRW, SSH and SSW were respectively used. As the result of this test, it was observed that edema was started to induce on day 4 and reached the peak point after about 45 days. The period for this test was established as 70 days after edema induction to observe the inhibitory effect on edema of the extracts of the present invention. As the result, the edema size was measured using a precision gauge.

[2] = Effect on arthritis of the compounds isolated from Harpagophytum procumbens DC (summary statement); settings: summary in background text
Raw 264.7 cell lines [3] = test: Induction of apoptosis of macrophages; assay type: cell-based; settings: Raw 264.7 cells; 10 μg/ml, 24 hours
Method: as §1

COX-II [4] = test: Inhibition of COX-II expression at the level of transcription through RT-PCR; assay type: cell-based
Method: In order to identify the ingredient having an inhibitory activity against COX-II and inducible nitric oxide synthetase (iNOS) as the causal factors of rheumatoid arthritis in the extract used as the effective component of the pharmaceutical composition according to the present invention as in Experiment 6 above, the cells were distributed in T75 flask at the concentration of 10^5 cells, incubated for 7 days and then stimulated for 2 hours by introducing LPS in the flask at the concentration of 50 ng/ml. Then, the extract of the present invention was added so as to make the final concentration of 50 μg/ml. The cells were harvested into a 1.5 ml Eppendorf tube and centrifuged with 15,000 rpm at 4° C. for 15 minutes to remove the supernatant. 200 μl of RNAzol solution was added to the residue followed by addition of 50 μl of chloroform. The cells were lysed by careful pippeting, and then centrifuged with 15,000 rpm at 4° C. for 15 minutes to recover a total RNA, which was then precipitated at 4° C. for 15 minutes by adding the same volume of isopropanol, washed once with 75% ethanol and then dried. The cell lysate was dissolved by adding 20 μl of […] and then warming the mixture at 60° C. for 30 minutes. Then, reverse transcriptase reaction was conducted at 50° C. for 20 minutes by adding 5 μl of 10 mM dNTP, 6 μl of 25 mM MgCl2, 5 μl of 10× RNA PCR buffer, 1 μl of RNase inhibitor, 1 μl of AMV-optimized Taq, 1 μl of AMV reverse transcriptase XL, 1 μl of 50 pM specific primer (sense/antisense), and 26 μl of RNase free dH2O to 5 μl of total RNA, and then stopped at 94° C. for 2 minutes to conduct DNA synthetic reaction (polymerase chain reaction: PCR). The PCR was conducted under conditions comprising 94° C. 1 minute, 55° C. 45 seconds, 70° C. 60 seconds for 35 cycles, and then, finally the elongation reaction was conducted at 70° C. for 5 minutes to complete the reaction. The resulting PCR product was eluted on 1% agarose gel and observed whether the bands are present near 395 bp and 278 bp on the basis of a size marker.

Raw 264.7 cell lines [5] = test: Effect on cell cycle of macrophage cells (flow cytometry); assay type: cell-based; settings: 20 μg/ml, LPS 50 ng/ml, propidium iodide flow cytometry
Method: (§2) Two kinds of cells were incubated as in Experiment 6 and then washed with PBS (phosphate-buffered saline). LPS was distributed on the respective dishes at the concentration of 50 ng/ml to stimulate the cells. Then, the extract according to the present invention was added over 2 hours so as to make the final concentration of 20 μg/ml. The supernatant was removed, washed with PBS and then treated with trypsin. The cells were harvested, introduced into Eppendorf tube and then centrifuged at 1,000 rpm for 5 minutes to remove the supernatant. The residue was fixed with addition of 1 ml of 100% ethanol. At this time, the mixture of 5 μg/ml propidium iodide and RNAse was separately prepared. The fixed cells were centrifuged to remove the supernatant and then washed once with PBS. Simultaneously, the staining agent as previously prepared above was added to the fixed cells and then warmed in an incubator at 37° C. for 30 minutes. The cells stained with propidium iodide was sealed with foil, stored at 4° C. and then subjected to a flow cytometry analysis using FACscan (Becton Dickinson, Calif.) as the analyzing apparatus.

[6] = test system: edema-induced albino rats; test: Joint rupture in edema-inhibited albino rats by X-ray analysis; assay type: in vivo; settings: oral 14 days, 75 μg/ml; about 70 days
Method: The respective water extract and organic solvent fractions were orally administered for 14 days at the concentration of 75 μg/ml to investigate their inhibitory effect on edema as in Experiment 1. The test albino rats were anesthetized to take X-ray photograph.

synovial cell lines = test: Effect on cell cycle of synovial cell lines (flow cytometry); assay type: cell-based, human; settings: 20 μg/ml, LPS 50 ng/ml, propidium iodide flow cytometry
Method: as §2

[7] = test system: nogo-A expressed U-373 MG cell line; test: Neurite regeneration in nogo-A expressing glioblastoma cells (vertebral neuroparalysis); assay type: cell-based; settings: nogo-A transfected U-373 cells; phase-contrast microscope
From the text: Simultaneously, it was also observed whether neurites can be regenerated by treatment with neuronal growth factor (NGF) or whether the fractions of the present invention can provide the same effect, by taking a photograph with a phase-contrast microscope of 200 magnifications.

COX-II [8] = test: Expression of COX-II protein by immunocytochemical analysis in synovial cells; assay type: cell-based; settings: 10 μg/ml
Method: In order to determine whether the compound identified as the effective component of the pharmaceutical composition separated by the present invention induces an inhibitory effect on COX-II of synovial cells in joint portion, 10^4 synovial cells were distributed on 5% DMEM medium supplemented with penicillin/streptomycin in 6-well culture dish containing a slimb over glass, incubated for 24 hours at 37° C., during which the extract of the present invention was added to the concentration of 10 μg/ml to observe the reaction. The waste was removed and then, the cells were washed once with PBS, fixed with methanol and then washed with PBS. The cells were labeled with the primary antibody COX-II and then allowed to stand at 4° C. for about one hour. Then, the cells were labeled with a fluorescence (fluorescein isothiocyanate: FITC) as the secondary antibody, allowed to stand for about one hour while masking from light with foil and then observed under a fluorescence microscope.

iNOS = test: Inhibition of iNOS expression at the level of transcription through RT-PCR; assay type: cell-based; settings: FIG. 11a; 50 μg/ml; LPS 50 ng/ml
Method: In order to identify the ingredient having an inhibitory activity against COX-II and inducible nitric oxide synthetase (iNOS) as the causal factors of rheumatoid arthritis in the extract used as the effective component of the pharmaceutical composition according to the present invention as in Experiment 6 above, the cells were distributed in T75 flask at the concentration of 10^5 cells, incubated for 7 days and then stimulated for 2 hours by introducing LPS in the flask at the concentration of 50 ng/ml. Then, the extract of the present invention was added so as to make the final concentration of 50 μg/ml. The cells were harvested into a 1.5 ml Eppendorf tube and centrifuged with 15,000 rpm at 4° C. for 15 minutes to remove the supernatant. 200 μl of RNAzol solution was added to the residue followed by addition of 50 μl of chloroform. The cells were lysed by careful pippeting, and then centrifuged with 15,000 rpm at 4° C. for 15 minutes to recover a total RNA, which was then precipitated at 4° C. for 15 minutes by adding the same volume of isopropanol, washed once with 75% ethanol and then dried. The cell lysate was dissolved by adding 20 μl of […] and then warming the mixture at 60° C. for 30 minutes. […]

[9] = test system: NO formation in RAW 264.7 cell lines; test: NO formation in macrophage cells stimulated by lipid polysaccharide; assay type: cell-based; settings: 10 μg/ml; LPS 50 ng/well; Greiss reagent
Method: In order to identify whether the extracts obtained according to the present invention can inhibit the synthesis of nitric oxide (NO) as the potent inducer of inflammation in blood due to edema as above, macrophage RAW 264.7 cell lines were distributed in a 96-well microplate at the concentration of 10^3 cells per well and then incubated for 12 hours. Then, lipid polysaccharide was added to the plate at the concentration of 50 ng/well to stimulate the cells for 2 hours. The respective organic solvent fractions were added to the plate to the final concentration of 10 μg/ml followed by addition of 50 μl of Greiss reagent solution, and then allowed to react together at room temperature. Then, the absorbance of the plate was measured at 540 nm of ELISA (enzyme-linked immunosorbent assay) reader. For comparative analysis, 0.1, 1, 10, 20, 50, 100, 150 μM sodium nitrite as the standard solution were developed with sodium nitroprusside dihydrate (SNP).

[10] = test system: CAM formation induced by synovial cells; test: Angiogenesis of synovial cells in chorioallantoic membrane (CAM) of fertilized egg; settings: 10 μg/ml on CAM; compared to control group
Method: In order to determine the effect of the organic solvent fractions obtained in Experiment 1 on the angionenesis of synovial cells using the cells separated in Experiment 2, synovial cells were injected into fertilized egg and then incubated in an incubator at 37° C. for 3 days to observe the formation of chorioallantoic membrane (CAM). In the present state, the fractions separated according to the above method were respectively distributed on CAM at the concentration of 10 μg/ml to observe the degree of CAM decrease.

Structure (SMILES)	induction of apoptosis (synovial cells)	edema size after treatment ([1]; Table 3 (best fractions), measured after 70 days, unit not given, in mm)	edema size before treatment ([1]; Table 3 (best fractions), unit not given, in mm)	inhibitory effect on edema [1]	effect on arthritis [2]	induction of apoptosis (Raw 264.7 cell lines [3])	effect on COX-II expression (RT-PCR) (COX-II [4]; FIG. 11c, respective fractions)	effect on cell cycle (Raw 264.7 cell lines [5])	osteogenesis (X-ray) [6]	rupture of cartilage in arthritic portion (X-ray) [6]	effect on cell cycle (synovial cell lines)	neurite pattern (regeneration of neurites) [7]	COX-II protein expression (immunofluorescence, FITC) (COX-II [8])	effect on iNOS expression (RT-PCR band near 278 bp) (iNOS)	inhibition of NO formation [9]	induction of CAM formation (angiogenesis by synovial cells) [10]	effect on COX-II expression (RT-PCR) (COX-II [4]; FIG. 11a, 50 μg/ml, LPS 50 ng/ml)
C[C@]1(OC(=O)/C=C/c2ccccc2)C[C@@H](O)[C@]2(O)C=CO[C@@H](O[C@@H]3O[C@H](CO)[C@@H](O)[C@H](O)[C@H]3O)[C@@H]21 [LNE-1, harpagoside]	more strongly inducing the apoptosis	5.1 ± 2	15.1 ± 2	potent inhibitory effect on edema	moderate pharmacological effect	more strongly inducing the apoptosis	strongly inhibit the protein expression										
OC[C@H]1O[C@H](OC[C@H]2O[C@H](OC[C@H]3O[C@H](O[C@]4(CO)O[C@H](CO)[C@@H](O)[C@@H]4O)[C@H](O)[C@@H](O)[C@@H]3O)[C@H](O)[C@@H](O)[C@H]2O)[C@H](O)[C@@H](O)[C@H]1O [LNE-2, starchyose]								induced G0/G1 arrest									
C[C@]1(O)C[C@@H](O)[C@]2(O)C=CO[C@@H](O[C@H]3O[C@H](CO)[C@@H](O)[C@H](O)[C@H]3O)[C@@H]21 [LNE-3, harpagide]	more strongly inducing the apoptosis			potent inhibitory effect on edema; also recorded: most significant	most effective	more strongly inducing the apoptosis	strongly inhibit the protein expression		effect of stimulating the osteogenesis	inhibits the rupture of cartilage in arthritic portion	induced the apoptosis	neurites were lengthened	tendency to greatly decrease the protein expression	have an effect on the protein expression	stronger inhibitory effect on NO formation	more strongly inhibited the induction of CAM formation	inhibitory effect at the level of transcription
